In brackets after ≈: the same amount, converted by molar mass.
Legend:
Albumin [1] = target: T1, Albumin (Bos taurus, UniProt P02769); test: Binding affinity to Bovine serum albumin assessed as fluorescence quenching at […] by fluorescence spectroscopic assay; type: ADME; details: cattle, isolated protein
HT-29 = test: Growth inhibition of human HT-29 cells incubated for 48 hrs by sulforhodamine B assay; type: functional; details: HT-29, 48 h
UACC-257 = test: Growth inhibition of human UACC257 cells incubated for 48 hrs by sulforhodamine B assay; type: functional; details: UACC-257, 48 h
SN12C [2] = test: Growth inhibition of human SN12C cells incubated for 48 hrs by sulforhodamine B assay; type: functional
TK-10 = test: Growth inhibition of human TK10 cells incubated for 48 hrs by sulforhodamine B assay; type: functional; details: TK-10, 48 h
MCF7 [3] = test: Growth inhibition of human MCF7 cells incubated for 48 hrs by sulforhodamine B assay; type: functional; details: MCF7, 48 h; for TGI: read-out: pTGI (converted)
HOP-62 = test: Growth inhibition of human HOP62 cells assessed as cell growth at 0.01 uM incubated for 48 hrs by sulforhodamine B assay relative to control; type: functional; details: HOP-62, 48 h, read-out: Activity
SK-OV-3 = test: Growth inhibition of human SKOV3 cells assessed as cell growth at 0.01 uM incubated for 48 hrs by sulforhodamine B assay relative to control; type: functional; details: SK-OV-3, 48 h, read-out: Activity
RXF 393 [4] = test: Growth inhibition of human RXF393 cells assessed as cell growth at 0.01 uM incubated for 48 hrs by sulforhodamine B assay relative to control; type: functional; details: RXF 393, 48 h, read-out: Activity
SN12C [5] = test: Growth inhibition of human SN12C cells assessed as cell growth at 0.01 uM incubated for 48 hrs by sulforhodamine B assay relative to control; type: functional; details: read-out: Activity
K562 = test: Growth inhibition of human K562 cells assessed as cell growth at 0.1 uM incubated for 48 hrs by sulforhodamine B assay relative to control; type: functional; details: K562, 48 h, read-out: Activity
NCI-H226 = test: Growth inhibition of human NCI-H226 cells assessed as cell growth at 0.1 uM incubated for 48 hrs by sulforhodamine B assay relative to control; type: functional; details: NCI-H226, 48 h, read-out: Activity
NCI-H522 = test: Growth inhibition of human NCI-H522 cells assessed as cell growth at 0.1 uM incubated for 48 hrs by sulforhodamine B assay relative to control; type: functional; details: NCI-H522, 48 h, read-out: Activity
SK-MEL-5 = test: Growth inhibition of human SK-MEL-5 cells assessed as cell growth at 0.1 uM incubated for 48 hrs by sulforhodamine B assay relative to control; type: functional; details: SK-MEL-5, 48 h, read-out: Activity
A498 = test: Growth inhibition of human A498 cells assessed as cell growth at 0.1 uM incubated for 48 hrs by sulforhodamine B assay relative to control; type: functional; details: A498, 48 h, read-out: Activity
RXF 393 [6] = test: Growth inhibition of human RXF393 cells assessed as cell growth at 0.1 uM incubated for 48 hrs by sulforhodamine B assay relative to control; type: functional; details: RXF 393, 48 h, read-out: Activity
SN12C [7] = test: Growth inhibition of human SN12C cells assessed as cell growth at 0.1 uM incubated for 48 hrs by sulforhodamine B assay relative to control; type: functional; details: read-out: Activity
T47D = test: Growth inhibition of human T47D cells assessed as cell growth at 0.1 uM incubated for 48 hrs by sulforhodamine B assay relative to control; type: functional; details: read-out: Activity
M14 = test: Growth inhibition of human M14 cells assessed as cell growth at 1 uM incubated for 48 hrs by sulforhodamine B assay relative to control; type: functional; details: M14, 48 h, read-out: Activity
SN12C [8] = test: Growth inhibition of human SN12C cells assessed as cell growth at 1 uM incubated for 48 hrs by sulforhodamine B assay relative to control; type: functional; details: read-out: Activity
DU-145 = test: Growth inhibition of human DU145 cells assessed as cell growth at 1 uM incubated for 48 hrs by sulforhodamine B assay relative to control; type: functional; details: DU-145, 48 h, read-out: Activity
HCT-15 = test: Growth inhibition of human HCT15 cells assessed as cell growth at 100 uM incubated for 48 hrs by sulforhodamine B assay relative to control; type: functional; details: HCT-15, 48 h, read-out: Activity
SN12C [9] = test: Growth inhibition of human SN12C cells assessed as cell growth at 100 uM incubated for 48 hrs by sulforhodamine B assay relative to control; type: functional; details: read-out: Activity
MCF7 [10] = test: Cytotoxicity against human MCF7 cells assessed as cell viability after 72 hrs by MTT assay; type: functional, cell-based; details: MCF7, 72 h
LNCaP = test: Cytotoxicity against human LNCAP cells assessed as cell viability after 72 hrs by MTT assay; type: functional, cell-based
HepG2 = test: Cytotoxicity against human HepG2 cells assessed as cell viability after 72 hrs by MTT assay; type: functional, cell-based; details: HepG2, 72 h
OVCAR-8 [11] = test: Growth inhibition of human OVCAR8 cells incubated for 48 hrs by sulforhodamine B assay; type: functional; details: OVCAR-8, 48 h
NCI/ADR-RES = test: Growth inhibition of human NCI-ADR-RES cells assessed as cell growth at 0.01 uM incubated for 48 hrs by sulforhodamine B assay relative to control; type: functional; details: read-out: Activity
OVCAR-8 [12] = test: Growth inhibition of human OVCAR8 cells assessed as cell growth at 0.1 uM incubated for 48 hrs by sulforhodamine B assay relative to control; type: functional; details: OVCAR-8, 48 h, read-out: Activity
OVCAR-8 [13] = test: Growth inhibition of human OVCAR8 cells assessed as cell growth at 1 uM incubated for 48 hrs by sulforhodamine B assay relative to control; type: functional; details: OVCAR-8, 48 h, read-out: Activity
OVCAR-8 [14] = test: Growth inhibition of human OVCAR8 cells assessed as cell growth at 100 uM incubated for 48 hrs by sulforhodamine B assay relative to control; type: functional; details: OVCAR-8, 48 h, read-out: Activity
Albumin [15] = target: T1, Albumin; test: Binding affinity to Bovine serum albumin assessed as fluorescence quenching at 0.1 to 1 uM at […] by fluorescence spectroscopic assay; type: ADME; details: cattle, isolated protein
[16] = read-out: LC50 (the source's name)
[17] = read-out: pLC50 (the source's name) (converted)

T1 sequence (P02769 whole entry): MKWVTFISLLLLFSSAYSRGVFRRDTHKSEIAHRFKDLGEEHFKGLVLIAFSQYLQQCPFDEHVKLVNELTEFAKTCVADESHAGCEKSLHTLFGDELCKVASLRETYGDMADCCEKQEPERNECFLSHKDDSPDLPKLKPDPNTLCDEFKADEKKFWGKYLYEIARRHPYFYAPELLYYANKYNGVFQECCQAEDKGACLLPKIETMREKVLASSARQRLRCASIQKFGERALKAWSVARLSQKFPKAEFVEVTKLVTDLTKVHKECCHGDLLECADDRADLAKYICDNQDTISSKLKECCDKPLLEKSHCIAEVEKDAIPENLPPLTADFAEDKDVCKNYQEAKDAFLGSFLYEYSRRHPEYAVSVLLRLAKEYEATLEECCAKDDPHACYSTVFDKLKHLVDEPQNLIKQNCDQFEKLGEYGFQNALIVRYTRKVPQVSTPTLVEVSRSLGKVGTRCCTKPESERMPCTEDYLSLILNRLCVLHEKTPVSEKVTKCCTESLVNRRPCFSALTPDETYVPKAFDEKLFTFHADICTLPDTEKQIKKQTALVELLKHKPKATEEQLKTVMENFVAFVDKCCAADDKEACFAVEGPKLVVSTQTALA

## c1ccc2c3c([nH]c2c1)C(c1ccc(C2NCCc4c2[nH]c2ccccc42)cc1)NCC3 (racemic)
Albumin [1]
  Activity: Dose-dependent effect
HT-29; read-out: GI50
  GI50: 2.8 µM
HT-29; [16]
  CC50: 3.92 µM
HT-29; read-out: TGI
  TGI: 7.35 µM
HT-29; read-out: pGI50 (converted)
  GI50: 0.282 µM
HT-29; [17]
  CC50: 3.89 µM
HT-29; read-out: pTGI (converted)
  TGI: 0.741 µM
UACC-257; read-out: GI50
  GI50: 1.19 µM
UACC-257; [16]
  CC50: 6.5 µM
UACC-257; read-out: TGI
  TGI: 3.52 µM
UACC-257; read-out: pGI50 (converted)
  GI50: 1.91 µM
UACC-257; [17]
  CC50: 6.46 µM
UACC-257; read-out: pTGI (converted)
  TGI: 3.55 µM
SN12C [2]; read-out: GI50
  GI50: 1.47 µM
SN12C [2]; [16]
  CC50: 6.31 µM
SN12C [2]; read-out: TGI
  TGI: 3.05 µM
SN12C [2]; read-out: pGI50 (converted)
  GI50: 1.48 µM
SN12C [2]; [17]
  CC50: 6.31 µM
SN12C [2]; read-out: pTGI (converted)
  TGI: 3.02 µM
TK-10; read-out: GI50
  GI50: 1.98 µM
TK-10; [16]
  CC50: 8.44 µM
TK-10; read-out: TGI
  TGI: 4.09 µM
TK-10; read-out: pGI50 (converted)
  GI50: 2 µM
TK-10; [17]
  CC50: 8.51 µM
TK-10; read-out: pTGI (converted)
  TGI: 4.07 µM
MCF7 [3]; [16]
  CC50: 6.1 µM
MCF7 [3]; read-out: pGI50 (converted)
  GI50: 0.389 µM
MCF7 [3]; [17]
  CC50: 6.17 µM
MCF7 [3]
  TGI: 1.74 µM
HOP-62
  growth at 0.01 µM: 84%
SK-OV-3
  growth at 0.01 µM: 91%
RXF 393 [4]
  growth at 0.01 µM: 101%
SN12C [5]
  growth at 0.01 µM: 96%
K562
  growth at 0.1 µM: 114%
NCI-H226
  growth at 0.1 µM: 95%
NCI-H522
  growth at 0.1 µM: 105%
SK-MEL-5
  growth at 0.1 µM: 101%
A498
  growth at 0.1 µM: 67%
RXF 393 [6]
  growth at 0.1 µM: 101%
SN12C [7]
  growth at 0.1 µM: 95%
T47D
  growth at 0.1 µM: 86%
M14
  growth at 1 µM: 21%
SN12C [8]
  growth at 1 µM: 77%
DU-145
  growth at 1 µM: 43%
HCT-15
  growth at 100 µM: 90%
SN12C [9]
  growth at 100 µM: -93%
MCF7 [10]
  IC50: 3.34 µg/mL (≈ 7.98 µM)
LNCaP
  IC50: 5.52 µg/mL (≈ 13.2 µM)
HepG2
  IC50: 4.43 µg/mL (≈ 10.6 µM)

## c1ccc2[nH]c(-c3ccc(-c4nccc5c4[nH]c4ccccc45)cc3)nc2c1
HT-29; read-out: GI50
  GI50: 2.19 µM
HT-29; [16]
  CC50: 8.97 µM
HT-29; read-out: TGI
  TGI: 4.43 µM
HT-29; read-out: pGI50 (converted)
  GI50: 2.19 µM
HT-29; [17]
  CC50: 8.91 µM
HT-29; read-out: pTGI (converted)
  TGI: 4.47 µM
UACC-257; read-out: GI50
  GI50: 1.83 µM
UACC-257; [16]
  CC50: 6.73 µM
UACC-257; read-out: TGI
  TGI: 3.5 µM
UACC-257; [17]
  CC50: 6.76 µM
OVCAR-8 [11]
  GI50: 3.31 µM
OVCAR-8 [11]; [16]
  CC50: > 1 µM
OVCAR-8 [11]; read-out: pLC50 (converted)
  CC50: > 100 µM
OVCAR-8 [11]; read-out: pTGI (converted)
  TGI: 13.5 µM
TK-10; read-out: GI50
  GI50: 2.07 µM
TK-10; [16]
  CC50: 1.08 µM
TK-10; read-out: TGI
  TGI: 4.59 µM
TK-10; read-out: pGI50 (converted)
  GI50: 2.09 µM
TK-10; [17]
  CC50: 10.7 µM
TK-10; read-out: pTGI (converted)
  TGI: 4.57 µM
MCF7 [3]; read-out: GI50
  GI50: 3.56 µM
MCF7 [3]; [16]
  CC50: 8.86 µM
MCF7 [3]; read-out: pGI50 (converted)
  GI50: 3.55 µM
MCF7 [3]; [17]
  CC50: 89.1 µM
MCF7 [3]
  TGI: 17.4 µM
HOP-62
  growth at 0.01 µM: 86%
NCI/ADR-RES
  growth at 0.01 µM: 99%
SK-OV-3
  growth at 0.01 µM: 93%
RXF 393 [4]
  growth at 0.01 µM: 106%
K562
  growth at 0.1 µM: 108%
NCI-H226
  growth at 0.1 µM: 104%
NCI-H522
  growth at 0.1 µM: 94%
SK-MEL-5
  growth at 0.1 µM: 100%
OVCAR-8 [12]
  growth at 0.1 µM: 103%
A498
  growth at 0.1 µM: 83%
RXF 393 [6]
  growth at 0.1 µM: 108%
T47D
  growth at 0.1 µM: 89%
M14
  growth at 1 µM: 92%
OVCAR-8 [13]
  growth at 1 µM: 99%
DU-145
  growth at 1 µM: 97%
HCT-15
  growth at 100 µM: 71%
OVCAR-8 [14]
  growth at 100 µM: 28%
Albumin [15]
  Activity: Active

Source: ChEMBL document CHEMBL4004838, “Design and synthesis of novel phenyl -1, 4-beta-carboline-hybrid molecules as potential anticancer agents” (Eur J Med Chem, 2017)
